Columns and labels:
Assay type in all cases: cell-based, Human
THP-1 cells [1] = test: Vybrant phagocytosis assay (fluorescein-labeled E. coli particles), THP-1 cells
Method: Human THP-1 monocytoid cells (acute monocytic leukemia) were obtained from American Type Tissue Collection (#TIB-202). Cells were cultured in RPMI-1640 medium supplemented with 2 mM L-glutamine, 10 mM HEPES, 1.0 mM sodium pyruvate, 10% fetal bovine serum and antibiotics. Primary peripheral blood monocytes (PBM) were isolated from mixed peripheral blood mononuclear cell preparations using the Miltenyi Biotec MACs magnetic separation system. PBM were cultured in the same medium as THP-1 cells, with the exception that 20% fetal bovine serum was used. Cells were seeded (1×10^5 cells/well, 96-well culture plates) 24 h prior to treatment with OxBC, PMA (25 ng/ml) and/or LPS (15 ng/ml) as described below. Cells incubated in an equivalent percentage (v/v) of DMSO alone served as controls.
Phagocytosis in monocyte cultures was evaluated using a Vybrant phagocytosis assay kit (Invitrogen, #V6694) based upon the ingestion of fluorescein-labeled E. coli (strain K12) bacterial particles. Briefly, treated cells were incubated at 37° C. for 5 h with a 1000 suspension of fluorescent bioparticles in Hank's buffered salt solution. […] The trypan blue solution was removed and the number of ingested particles determined using a fluorescence microplate reader (480 nm excitation, 520 nm emission). […] After recovery, the cells were treated with LPS for an 24 h before phagocytosis was measured.

THP-1 cells [2] = test: Cytokine release ELISA, naive THP-1 cells treated directly
Method: Human THP-1 monocytoid cells (acute monocytic leukemia) were obtained from American Type Tissue Collection (#TIB-202). Cells were cultured in RPMI-1640 medium supplemented with 2 mM L-glutamine, 10 mM HEPES, 1.0 mM sodium pyruvate, 10% fetal bovine serum and antibiotics. Peripheral blood monocytes (PBM) and lymphocytes (PBL) were isolated from PBMC by positive and negative selection, respectively, using the Miltenyi Biotec MACs magnetic separation system. PBM were cultured in RPMI-1640 medium supplemented with 2 mM L-glutamine, 10 mM HEPES, 1.0 mM sodium pyruvate, 20% fetal bovine serum and antibiotics. PBL were seeded in the same medium with the exception that 10% FBS was used. Specific cell densities and experimental conditions are described below.
Cells were evaluated in both naïve challenge and LPS challenge models. For naive studies, cells were exposed directly to OxBC for varying time frames and cytokine expression evaluated in conditioned medium (CM) by ELISA. For LPS challenge, cells were first incubated with OxBC for the indicated time, at which point OxBC was removed and replaced with fresh medium lacking the compound. At different time points post-treatment, cells were then challenged with LPS (15 ng/ml) for 24 h prior to cytokine levels in CM being evaluated by ELISA. In a variation of the LPS challenge scenario, primary PBM were first challenged with LPS for 24 h. After this initial stimulation, LPS-treated cells were then exposed to OxBC for 24 h before CM was harvested for ELISA analysis.
Analysis of cytokine levels in CM was performed using Endogen Human ELISA kits (Pierce) according to manufacturer's instructions. CM was prepared by centrifugation to remove cellular debris and either used neat, diluted with complete medium or concentrated using Nanosep 3K centrifugal concentrators (Pall) to ensure that cytokine levels fell within the linear ranges of each assay. Where appropriate, samples were stored at −80° C. and thawed by gradual equilibration at room temperature prior to use. Briefly, 50 μl samples were added to each well of a microplate to which antibody specific to the cytokine of interest had been adsorbed and incubated at room temperature for 1-3 h. Plates were washed three times to remove nonspecifically bound material and incubated for an additional 1-3 h with biotinylated antibody specific to the cytokine of interest. After washing, plates were incubated for 30 min with steptavidin-horse radish peroxidase reagent followed by an additional washing cycle. Washed plates were incubated for 30 min with 3,3′,5,5′-tetramethylbenzidine (TMB) substrate, the reaction stopped and absorbance measured at 450 nm (550 nm reference). Reference curves were generated for each cytokine using the supplied recombinant standard.
A primary proof-of-principle study was conducted in THP-1 cells that were untreated (mock) or treated for 24 h with OxBC, PMA (25 ng/ml) and vehicle (DMSO). […] Moreover, no change in MCP-1 and IL-8 expression was detected at lower concentrations of the compound. Both MCP-1 and IL-8 function as cytokines to recruit immune cells to sites of infection or injury. For example, IL-8 primarily recruits neutrophils within an inflammatory response and is also termed neutrophils recruitment factor (NRF), while MCP-1 primarily functions to recruit other monocytes. Expression of either cytokine by monocytes/macrophages is induced in response to detection of antigen or phagocytosis of an invading pathogen.

THP-1 cells [3] = test: FACS analysis of surface receptor expression in THP-1 cells (no LPS)
Method: Human THP-1 monocytoid cells (acute monocytic leukemia) were obtained from American Type Tissue Collection (#TIB-202). Cells were cultured in RPMI-1640 medium supplemented with 2 mM L-glutamine, 10 mM HEPES, 1.0 mM sodium pyruvate, 10% fetal bovine serum and antibiotics. Cells were seeded (5×10^5 cells/well, 6-well culture plates) 24 h prior to treatment with OxBC and harvested for analysis according to three protocols: 1) Cells were treated with OxBC (2.5, 7.5 or 12.5 μM) for 24 h and than evaluated for surface receptor expression; 2) Cells were treated with OxBC (0.1, 0.5 or 1.0 μM) for 24 h, at which point fresh media lacking OxBC was supplied for 48 h prior to analysis, and 3) Cells were treated with OxBC (0.1, 0.5 or 1.0 μM) for 24 h, at which point fresh media lacking OxBC was supplied for 5 days. Treated cells were then stimulated with LPS (15 ng/ml) for 24 h prior to analysis. Cells incubated in an equivalent percentage (v/v) of DMSO alone served as controls. For studies in which LPS stimulation was not employed, PMA 25 ng/ml) was used as positive stimulator of monocytes differentiation.
Phycoerythrin (PE)-labeled primary antibodies against human CD11b, CD14, CD16, CD36, CD51/CD61, HLA (broad isoforms), HLA-B7, CD86, CD40, CD40L and CD3 were obtained from AbCam. Receptor expression was evaluated using direct immunofluorescence labeling and flow cytometry analysis. Briefly, triplicate cell aliquots in cold buffer (PBS containing 10% FBS and 1% sodium azide) were incubated with primary antibody (10-20 μl) for 45 min at room temperature under low light conditions. Cells were washed three times and resuspended in 500 μl of buffer for analysis using a FacsAria cell sorter. Unlabeled cells and cells labeled with antibody alone served as controls.

[4] = THP-1, 24 h, PMA 25 ng/ml, proof-of-principle

Compound: CCCCCCCCCCCCCC(=O)O[C@@H]1[C@@H](C)[C@@]2(O)[C@@H](C=C(CO)C[C@]3(O)C(=O)C(C)=C[C@@H]23)[C@@H]2C(C)(C)[C@]12OC(C)=O [PMA, Phorbol myristate acetate]
- phagocytic activity (THP-1 cells [1]; THP-1, PMA 24 h, 72 h recovery): large increase in phagocytic activity
- increase in phagocytic activity relative to control cultures (THP-1 cells [1]; naive THP-1, PMA 25 ng/ml 24 h): 12.94±2.05 fold
- IFNγ (THP-1 cells [2]; [4]): 10.0 ± 1.3 pg/mL
- IL-1β (THP-1 cells [2]; [4]): 73.4 ± 2.8 pg/mL
- IL-8 (THP-1 cells [2]; [4]): 637.2 ± 18.6 pg/mL
- IL-12 (THP-1 cells [2]; [4]): 8.0 ± 6.5 pg/mL
- MCP-1 (THP-1 cells [2]; [4]): 654.9 ± 60.2 pg/mL
- TNF (THP-1 cells [2]; [4]): 110.1 ± 1.7 pg/mL
- IFNγ (THP-1 cells [2]; THP-1, PMA 25 ng/ml, Table 3): 24.9 pg/mL
- IL-1β (THP-1 cells [2]; THP-1, PMA 25 ng/ml, Table 3): 62.5 pg/mL
- IL-6 (THP-1 cells [2]; THP-1, PMA 25 ng/ml, Table 3): 20.3 pg/mL
- IL-8 (THP-1 cells [2]; THP-1, PMA 25 ng/ml, Table 3): 712.4 pg/mL
- IL-12 (THP-1 cells [2]; THP-1, PMA 25 ng/ml, Table 3): 20.9 pg/mL
- MCP-1 (THP-1 cells [2]; THP-1, PMA 25 ng/ml, Table 3): 574.8 pg/mL
- TNF (THP-1 cells [2]; THP-1, PMA 25 ng/ml, Table 3): 108.5 pg/mL
- CD11b expression, fold change relative to vehicle controls (THP-1 cells [3]; THP-1, 24 h, PMA 25 ng/ml): 0.97 ± 0.02 fold
- CD14 expression, fold change relative to vehicle controls (THP-1 cells [3]; THP-1, 24 h, PMA 25 ng/ml): 1.91 ± 0.06 fold
- CD16 expression, fold change relative to vehicle controls (THP-1 cells [3]; THP-1, 24 h, PMA 25 ng/ml): 4.77 ± 0.31 fold
- CD36 expression, fold change relative to vehicle controls (THP-1 cells [3]; THP-1, 24 h, PMA 25 ng/ml): 1.03 ± 0.01 fold
- CD51 expression, fold change relative to vehicle controls (THP-1 cells [3]; THP-1, 24 h, PMA 25 ng/ml): 5.07 ± 0.29 fold
- B7-2 (CD86) expression, fold change relative to vehicle controls (THP-1 cells [3]; THP-1, PMA 25 ng/ml): 2.04 ± 0.29 fold
- CD11b receptor density (fluorescence intensity), fold change relative to vehicle controls (THP-1 cells [3]; THP-1, PMA 25 ng/ml): 1.97 ± 0.01 fold
- CD36 receptor density (fluorescence intensity), fold change relative to vehicle controls (THP-1 cells [3]; THP-1, PMA 25 ng/ml): 4.57 ± 0.03 fold
- CD40L expression, fold change relative to vehicle controls (THP-1 cells [3]; THP-1, PMA 25 ng/ml): 1.4 ± 0.10 fold
- CD40 counts, fold change relative to vehicle controls (THP-1 cells [3]; THP-1, PMA 25 ng/ml): 0.98 ± 0.01 fold
- CD40 intensity, fold change relative to vehicle controls (THP-1 cells [3]; THP-1, PMA 25 ng/ml): 1.31 ± 0.1 fold
- HLA (DQ/DR/DP) expression, fold change relative to vehicle controls (THP-1 cells [3]; THP-1, PMA 25 ng/ml): 1.05 ± 0.01 fold
- increase of densities of CD11b and CD36 (THP-1 cells [3]; THP-1, PMA 25 ng/ml): 2 to 4 fold

Reference: patent US10449247B2, “Compositions and methods for enhancing immune response” (priority 2007, dated 2019)
